In patent US6828321B2, “1,2,4-Benzotriazine oxides as radiosensitizers and selective cytotoxic agents” (priority 1986, dated 2004):
Like-named read-outs stand apart in the source and are kept apart here.

Experiments:
hypoxic cells in culture = assay: Radiosensitivity in vitro: drug concentration giving a sensitizer enhancement ratio of 1.6; assay type: cell-based; settings: concentration of drug necessary to produce a sensitizer enhancement ratio of 1.6 of hypoxic cells in culture
Excerpt: The results of assays to determine the concentration of drug necessary to produce a sensitizer enhancement ratio of 1.6 of hypoxic cells in culture are as follows: […]

SCCVII tumor [1] = assay: Fractionated radiotherapy of SCCVII tumors (8 x 2.5 Gy in four days); settings: SR 2508 1000 mg/kg before each dose; for effect on growth delay of irradiated tumors: compound 22 0.08 mmole/kg alone before or with HDZ after irradiation, FIG. 6; for effect on radiation response, clonogenic tumor cell survival: compound 22 0.08 mmole/kg alone or with HDZ, FIG. 5
Description: Our protocol was to use eight doses of 2.5 Gy/dose in four days (irradiating 2×/day). […] We used two different types of controls. […] We assayed the efficacies of the treatments using clonogenic cell survival and also regrowth delay.

[2] = Polarographic half-wave reduction potential; assay type: physicochemical; settings: Britton & Robinson pH 7.4 buffer, dropping mercury electrode
HA-1 cells = assay: Hypoxic versus aerobic cytotoxicity from survival curves of HA-1 cells; assay type: cell-based; settings: for cytotoxicity against hypoxic HA-1 tumor cells in vitro compared to 22 / RHT (Relative Hypoxic Cytoxicity): hypoxic conditions; for RHT (Relative Hypoxic Cytoxicity): ratio of equitoxic concentrations of 22:analog; for RHT (Relative Hypoxic Cytoxicity) / HCR (Hypoxic Cytoxicity Ratio): HA-1 cells; for HCR (Hypoxic Cytoxicity Ratio): ratio of equitoxic concentrations of each analog, hypoxic:aerobic conditions
[3] = system: Chinese hamster ovary (CHO) cells; assay: Aerobic radiosensitization of CHO cells by hypoxic pre- or post-treatment; assay type: cell-based; settings: for cell survival after drug treatment alone: 20 μM, hypoxic
Excerpt: The sensitization was predominantly a change in the slope of the radiation survival curve. Do decreased from 1.34 Gy (95% confidence limits: 1.09-1.76 Gy) to 0.80 Gy (95% confidence limits: 0.73-0.88 Gy), based on least-squares regression analysis of pooled data for the exponential portions of the survival curves for control and treated cells. However, sensitization at low radiation doses was also readily apparent.

SCCVII carcinomas = assay: In vivo assay for activity in combination with radiation; design: species or system C3H mice; settings: fixed radiation dose 20 Gy, 2 hr after to 3 hr before drug injection; FIG. 2
SCCVII tumor [4] = assay: Enhanced tumor cell toxicity using hydralazine; assay type: in vivo, mice; settings: FIG. 3
Description: For this assay, SCCVII carcinomas in female C3H mice weighing 20-25 g were used. These mice were bred under specific pathogen-free conditions and were 3-4 months old at the beginning of each experiment. The SCCVII tumor was grown intradermally in the flank from an inoculation of 2×10^5 tumor cells taken from the 2nd-8th in vitro passage of the tumor cells after removal from the previous in vivo tumor. Two tumors per mouse were implanted, and were used as subject tumors when they reached a volume of approximately 100 ml. At this point the tumors contained approximately 20% hypoxic cells.
The amount of cell killing was judged by survival rate of dissected and cultured tumor cells as follows. The tumor-bearing mice were killed 24 hr after irradiation, and tumors were dissected from the skin, cut into several pieces, and made into a fine brei by high-speed chopping with a razor blade attached to a jigsaw. The brei was added to 30 ml of Hank's buffered salt solution (HBSS) containing 0.02% DNase, 0.05% promase, and 0.02% collagenase. The suspension was stirred for 30 min at 37° C., filtered, and centrifuged at 1,600 rmp for 10 min at 4° C. […] Suitable dilutions of this serum plated into 60- or 100-mm polystyrene petri dishes (Lux Scientific Corp) in 5 or 15 ml of medium. After incubation for 13 days, the colonies were fixed and stained, and those containing 50 cells or more were counted. […]

[5] = system: aerobic and hypoxic cells in culture (human, mouse, and hamster); assay: Cytotoxicity tests on aerobic and hypoxic cells in culture; assay type: cell-based
Description: The cells in spinner flasks were gassed for one hour at 37° C. with either air or nitrogen containing 5% CO2 prior to adding the specified amounts of the drug.

[6] = Octanol-water partition coefficient (method of Fujita et al.); assay type: physicochemical; settings: pH 7.4 buffer
Determination of LD50 = assay type: in vivo; settings: mouse, in vivo; Balb/c female mice 3 months of age; ip (or iv) injection
Description: (§1) LD50 is determined in BALB/c female mice (weighing 20-25 g) following intraperitoneal (ip) injection, unless the compound tested has low lipophilicity and is very soluble, wherein intravenous (iv) administration is used. LD50 values at 1, 2, 5, and 60 days are determined by administering graded doses of the drug dissolved in physiological saline immediately prior to injection.

Solubility = assay type: physicochemical
BALB/c female mice = assay: Determination of LD50; assay type: in vivo; settings: Balb/c female mice 3 months of age; ip (or iv) injection
Description: as §1

6(7)-methoxy-3-amino-1,2,4-benzotriazine 1,4-dioxide
C1.6 (hypoxic cells in culture): ˜1.0 mM

CCCCCCCCCCc1ccc2nc(N)n[n+]([O-])c2c1
melting point: 177 °C (dec.)

O=C(Cn1ccnc1[N+](=O)[O-])NCCO [SR 2508, reference compound]
effect on growth delay of irradiated tumors (SCCVII tumor [1]): no radiosensitizing effect
effect on radiation response, clonogenic tumor cell survival (SCCVII tumor [1]): no effect

CC(=NO)c1ccc2nc(N)n[n+]([O-])c2c1
melting point: 278 °C (dec.)

Nc1n[n+]([O-])c2cc([N+](=O)[O-])ccc2[n+]1[O-] [Compound 14, 7-nitro-3-amino-1,2,4-benzotriazine 1,4-dioxide]
E1/2 [2]: −133 mV
cytotoxicity against hypoxic HA-1 tumor cells in vitro compared to 22 (HA-1 cells): significantly enhanced cytotoxicity
RHT (Relative Hypoxic Cytoxicity) (HA-1 cells): 2
HCR (Hypoxic Cytoxicity Ratio) (HA-1 cells): 140

Nc1nc2ccc(Cl)cc2[n+]([O-])n1 [7-chloro-3-amino-1,2,4-benzotriazine 1-oxide]
C1.6 (hypoxic cells in culture): 3.3 mM

Nc1n[n+]([O-])c2ccccc2[n+]1[O-] [Compound 22, 3-amino-1,2,4-benzotriazine 1,4-dioxide]
cell survival after drug treatment alone ([3]; 1.0 h preirradiation exposure): approximately 32%
cell survival after drug treatment alone ([3]; 1.5 h postirradiation treatment): 23%
cell survival after drug treatment alone ([3]; 1.5 h preirradiation exposure): ~19%
cell survival after drug treatment alone ([3]; 2.0 h preirradiation exposure): ~8%
cell survival after drug treatment alone ([3]; 2.5 h preirradiation exposure): ~2%
Do of the radiation survival curve of treated cells ([3]; pooled data of treated cells, control 1.34 Gy, 95% confidence limits 0.73-0.88 Gy): 0.80 Gy
effect on growth delay of irradiated tumors (SCCVII tumor [1]): large increase in effect compared to radiation or drug alone
effect on radiation response, clonogenic tumor cell survival (SCCVII tumor [1]): large enhancement of the radiation response
tumor cell killing combined with radiation compared to radiation only (SCCVII carcinomas): enhanced cell killing compared to radiation only
factor by which survival was reduced (SCCVII tumor [4]; combination with hydralazine): 10^3
cell killing in the SCCVII tumor, agent alone (SCCVII tumor [4]; single agent): neither hydralazine nor the aforementioned benzotriazine compound produced any significant cell killing
drug concentration required under hypoxia for equal cell killing, as share of the aerobic concentration [5]: 1 to 2%

NC(=O)c1ccc2nc(N)n[n+]([O-])c2c1
melting point: 300 °C

CCN(CC)CCCNc1n[n+]([O-])c2ccccc2[n+]1[O-] [Compound 18a, 3-(3-N,N-diethylaminopropylamino)-1,2,4-benzotriazine 1,4-dioxide]
logP [6]: -1.34
LD50 (Determination of LD50): 250 µmol/kg
E1/2 [2]: −348 mV
solubility (Solubility; read-out: Solubility): > 181 mM
cytotoxicity against hypoxic HA-1 tumor cells in vitro compared to 22 (HA-1 cells): significantly enhanced cytotoxicity

CCN(CC)CCNc1n[n+]([O-])c2cc([N+](=O)[O-])ccc2[n+]1[O-].Cl [Compound 21, 7-nitro-3-(2-N,N-diethylaminoethylamino)-1,2,4-benzotriazine 1,4-dioxide hydrochloride]
Log P [6]: −0.20
LD50 (BALB/c female mice): 0.40
E1/2 [2]: −140 mV
solubility (Solubility): 96.40 mM
cytotoxicity against hypoxic HA-1 tumor cells in vitro compared to 22 (HA-1 cells): significantly enhanced cytotoxicity
RHT (Relative Hypoxic Cytoxicity) (HA-1 cells): 3
HCR (Hypoxic Cytoxicity Ratio) (HA-1 cells): 211

[O-][n+]1nc(O)[n+]([O-])c2ccccc21 [3-hydroxy-1,2,4-benzotriazine 1,4-dioxide]
C1.6 (hypoxic cells in culture): ˜2.0 mM
